Laboratory results as given in PubChem BioAssay AID248 (DTP/NCI, 2004).
Inconclusive results and toxic doses are left out. Rule as the data show it: active = T/C of 150% or more; inactive = T/C below 125%.

Tested on: L1210 leukemia ip in BDF1 mice, survival T/C
Assay: NCI In Vivo Anticancer Drug Screen. Data for tumor model L1210 Leukemia (intraperitoneal) in B6D2F1 (BDF1) mice
Conditions: endpoint: mean survival time, higher = longer survival
Description: The antitumor activity of compounds was measured in mice bearing transplantable tumors. Survival or tumor size were measured and the results are expressed as the measurement made in the treated group (T) divided by the measurement made in the vehicle treated control group (C). The tumor model used in this assay is L1210 Leukemia (intraperitoneal) in B6D2F1 (BDF1) mice

[1] = dose: 100.0 mg/kg/injection, schedule: Q04DX003 (ip), vehicle: Klucel (hydroxypropylcellulose) (HPC)
[2] = dose: 200.0 mg/kg/injection, schedule: Q04DX003 (ip), vehicle: Klucel (hydroxypropylcellulose) (HPC)
[3] = dose: 400.0 mg/kg/injection, schedule: Q04DX003 (ip), vehicle: Klucel (hydroxypropylcellulose) (HPC)
[4] = dose: 100.0 mg/kg/injection, schedule: Q01DX001 (ip), vehicle: carboxymethylcellulose (CMC)
[5] = dose: 200.0 mg/kg/injection, schedule: Q01DX001 (ip), vehicle: carboxymethylcellulose (CMC)
[6] = dose: 400.0 mg/kg/injection, schedule: Q01DX001 (ip), vehicle: carboxymethylcellulose (CMC)
[7] = dose: 100.0 mg/kg/injection, schedule: Q01DX009 (ip), vehicle: Klucel (hydroxypropylcellulose) (HPC)
[8] = dose: 200.0 mg/kg/injection, schedule: Q01DX009 (ip), vehicle: Klucel (hydroxypropylcellulose) (HPC)
[9] = dose: 400.0 mg/kg/injection, schedule: Q01DX009 (ip), vehicle: Klucel (hydroxypropylcellulose) (HPC)
[10] = dose: 50.0 mg/kg/injection, schedule: Q04DX002 (ip), vehicle: Klucel (hydroxypropylcellulose) (HPC)
[11] = dose: 100.0 mg/kg/injection, schedule: Q04DX002 (ip), vehicle: Klucel (hydroxypropylcellulose) (HPC)
[12] = dose: 200.0 mg/kg/injection, schedule: Q04DX002 (ip), vehicle: Klucel (hydroxypropylcellulose) (HPC)
[13] = dose: 100.0 mg/kg/injection, schedule: Q01DX001 (ip), vehicle: saline
[14] = dose: 200.0 mg/kg/injection, schedule: Q01DX001 (ip), vehicle: saline
[15] = dose: 400.0 mg/kg/injection, schedule: Q01DX001 (ip), vehicle: saline
[16] = dose: 50.0 mg/kg/injection, schedule: Q01DX001 (ip), vehicle: saline
[17] = dose: 100.0 mg/kg/injection, schedule: Q04DX003 (ip), vehicle: saline with Tween-80
[18] = dose: 200.0 mg/kg/injection, schedule: Q04DX003 (ip), vehicle: saline with Tween-80
[19] = dose: 400.0 mg/kg/injection, schedule: Q04DX003 (ip), vehicle: saline with Tween-80

Measured: T/C

COc1ccc(OC)c(N(CCN2C(=O)c3ccccc3C2=O)C(=O)C2CCC(=O)C2C)c1 (centres undefined)
inactive: dose: 100.0 mg/kg/injection, schedule: Q04DX002 (ip), vehicle: saline with Tween-80 100 % of control | dose: 200.0 mg/kg/injection, schedule: Q04DX002 (ip), vehicle: saline with Tween-80 103 % of control | dose: 400.0 mg/kg/injection, schedule: Q04DX002 (ip), vehicle: saline with Tween-80 97 % of control

[CH3][Pb]([CH3])([CH3])[I]
inactive: [1] 103 % of control | [2] 98 % of control | [3] 94 % of control

Cc1ccc(N2CCN(C3=CCC(C(C)C)CC3)CC2)cc1Cl (centres undefined)
inactive: dose: 100.0 mg/kg/injection, schedule: Q01DX009 (ip), vehicle: saline with Tween-80 106 % of control

COc1ccc(C2(O)c3ccccc3-c3ccccc32)cc1
inactive: dose: 25.0 mg/kg/injection, schedule: Q01DX009 (ip), vehicle: saline 98 % of control | dose: 50.0 mg/kg/injection, schedule: Q01DX009 (ip), vehicle: saline 93 % of control | dose: 100.0 mg/kg/injection, schedule: Q01DX009 (ip), vehicle: saline 98 % of control | dose: 200.0 mg/kg/injection, schedule: Q01DX009 (ip), vehicle: saline 101 % of control | dose: 300.0 mg/kg/injection, schedule: Q01DX009 (ip), vehicle: saline 96 % of control | dose: 400.0 mg/kg/injection, schedule: Q01DX009 (ip), vehicle: saline 95 % of control

CCCCCCCCCCCCCCCc1ccc2c3c(cccc13)C=C2
inactive: [4] 92 % of control | [5] 92 % of control | [6] 90 % of control

Nc1ccccc1C(=O)N/N=C/c1ccccc1Cl
inactive: [7] 102 % of control | [8] 97 % of control | [9] 86 % of control

O=C(Oc1ccc(S(=O)(=O)F)cc1Cl)c1ccccc1Cl
inactive: dose: 100.0 mg/kg/injection, schedule: Q04DX003 (ip), vehicle: carboxymethylcellulose (CMC) 98 % of control | dose: 200.0 mg/kg/injection, schedule: Q04DX003 (ip), vehicle: carboxymethylcellulose (CMC) 95 % of control | dose: 400.0 mg/kg/injection, schedule: Q04DX003 (ip), vehicle: carboxymethylcellulose (CMC) 104 % of control

OCC(O)C(O)CO (centres undefined) (tested in a mixture with another compound)
inactive: [10] 104 % of control | [11] 95 % of control | [12] 98 % of control

CCOc1cccc(Cc2c[nH]c(=O)n(C)c2=O)c1
inactive: [1] 93 % of control | [2] 97 % of control | [3] 98 % of control

Cn1ncc2c(N)ncnc21
inactive: dose: 6.0 mg/kg/injection, schedule: Q01DX015 (ip), vehicle: carboxymethylcellulose (CMC) 108 % of control | dose: 12.0 mg/kg/injection, schedule: Q01DX015 (ip), vehicle: carboxymethylcellulose (CMC) 101 % of control | dose: 12.5 mg/kg/injection, schedule: Q01DX009 (ip), vehicle: Klucel (hydroxypropylcellulose) (HPC) 102 % of control | dose: 25.0 mg/kg/injection, schedule: Q01DX009 (ip), vehicle: Klucel (hydroxypropylcellulose) (HPC) 107 % of control | dose: 25.0 mg/kg/injection, schedule: Q01DX015 (ip), vehicle: carboxymethylcellulose (CMC) 108 % of control | dose: 50.0 mg/kg/injection, schedule: Q01DX009 (ip), vehicle: Klucel (hydroxypropylcellulose) (HPC) 91 % of control | dose: 50.0 mg/kg/injection, schedule: Q01DX015 (ip), vehicle: carboxymethylcellulose (CMC) 101 % of control | [4] 103 % of control | [5] 98 % of control | [6] 106 % of control

CCOC(=O)CC(C(=O)OCC)N1CCCCC1 (centres undefined)
inactive: [13] 92 % of control | dose: 100.0 mg/kg/injection, schedule: Q01DX009 (ip), vehicle: alcohol 95 % of control | dose: 100.0 mg/kg/injection, schedule: Q04DX003 (ip), vehicle: alcohol 100 % of control | [14] 91 % of control | dose: 200.0 mg/kg/injection, schedule: Q01DX009 (ip), vehicle: alcohol 95 % of control | dose: 200.0 mg/kg/injection, schedule: Q04DX003 (ip), vehicle: alcohol 95 % of control | [15] 94 % of control | dose: 400.0 mg/kg/injection, schedule: Q01DX009 (ip), vehicle: alcohol 105 % of control | dose: 400.0 mg/kg/injection, schedule: Q04DX003 (ip), vehicle: alcohol 97 % of control

Nc1ccc2ncccc2c1[N+](=O)[O-]
inactive: dose: 100.0 mg/kg/injection, schedule: Q01DX001 (ip), vehicle: other 87 % of control | dose: 200.0 mg/kg/injection, schedule: Q01DX001 (ip), vehicle: other 93 % of control

Cc1cc2oc(/C=N/O)c(C)c2cc1C
inactive: [7] 99 % of control | [8] 96 % of control | [9] 90 % of control

Cc1ccc(S(=O)(=O)Nc2c(C)cc([N+](=O)[O-])cc2C)cc1
inactive: dose: 50.0 mg/kg/injection, schedule: Q01DX001 (ip), vehicle: carboxymethylcellulose (CMC) 119 % of control | [4] 96 % of control | [5] 102 % of control | [6] 100 % of control

O=C1CCC(=O)N1CCCO
inactive: dose: 100.0 mg/kg/injection, schedule: Q04DX003 (ip), vehicle: saline 107 % of control | dose: 200.0 mg/kg/injection, schedule: Q04DX003 (ip), vehicle: saline 100 % of control | dose: 400.0 mg/kg/injection, schedule: Q04DX003 (ip), vehicle: saline 104 % of control

[N-]=[N+]=C1N=NC=C1C(N)=O
inactive: [16] 98 % of control | [13] 107 % of control | [14] 107 % of control

Brc1cc(Br)c(/C=C/c2c(Br)cc(Br)cc2Br)c(Br)c1
inactive: [7] 104 % of control | [8] 102 % of control | [9] 105 % of control

O=[N+]([O-])c1ccc(CBr)cc1
inactive: dose: 12.5 mg/kg/injection, schedule: Q01DX009 (ip), vehicle: other 95 % of control | dose: 25.0 mg/kg/injection, schedule: Q01DX009 (ip), vehicle: other 113 % of control | dose: 50.0 mg/kg/injection, schedule: Q01DX009 (ip), vehicle: other 104 % of control

CCCN1CCCN(CCC)C1=O
inactive: [10] 102 % of control | [11] 102 % of control | [12] 93 % of control

Clc1ccc(C(c2cccs2)N2CCNCC2)cc1 (centres undefined)
inactive: dose: 25.0 mg/kg/injection, schedule: Q01DX009 (ip), vehicle: saline with Tween-80 96 % of control | dose: 50.0 mg/kg/injection, schedule: Q01DX009 (ip), vehicle: saline with Tween-80 90 % of control | [17] 98 % of control

Nc1ncc(Br)cn1
inactive: [17] 105 % of control | [18] 100 % of control | [19] 102 % of control

COC(c1ccccc1)(c1ccccc1)N(C)C
inactive: [16] 97 % of control | [13] 105 % of control | [14] 97 % of control | [15] 94 % of control

CCC/C(=N\Nc1ccc([N+](=O)[O-])cc1[N+](=O)[O-])c1ccccc1
inactive: [17] 91 % of control | [19] 86 % of control

O=[N+]([O-])c1ccc(C2=NCCS2)cc1
inactive: dose: 87.0 mg/kg/injection, schedule: Q04DX003 (ip), vehicle: Klucel (hydroxypropylcellulose) (HPC) 102 % of control | dose: 175.0 mg/kg/injection, schedule: Q04DX003 (ip), vehicle: Klucel (hydroxypropylcellulose) (HPC) 102 % of control | dose: 350.0 mg/kg/injection, schedule: Q04DX003 (ip), vehicle: Klucel (hydroxypropylcellulose) (HPC) 102 % of control

CC(=O)Nn1c(=O)c(=O)oc2ccccc21
inactive: dose: 75.0 mg/kg/injection, schedule: Q01DX001 (ip), vehicle: acetone 94 % of control | dose: 150.0 mg/kg/injection, schedule: Q01DX001 (ip), vehicle: acetone 93 % of control | dose: 300.0 mg/kg/injection, schedule: Q01DX001 (ip), vehicle: acetone 96 % of control

O=C1C=C(C(Cl)(Cl)Cl)OC(=O)C1
inactive: [17] 98 % of control | [18] 98 % of control | [19] 93 % of control

COc1cc2c(cc1OC)C1CCC3=C(O)CCC3=[N+]1CC2 (centres undefined)
inactive: [11] 101 % of control | [12] 86 % of control
